Holding throughout (type): in vivo
The nature of series [1]: Literature plasma and brain levels after oral dosing (Torii et al., Nagai et al.). The settings on record: rats, oral 10 mg/kg. As to the method: Beyond the high first-pass effect, a further drawback of compounds of formula (I), and again exemplified with compound IA as a representative for this compound class, is the fact, that these compounds are reaching the brain only in very limited amounts when given orally. For example, it is known from the literature (Torii H, Yoshida K, Kobayashi T, Tsukamoto T, Tanayama S. J Pharmacobiodyn. 1985 Jun;8(6):457-67) that an oral dose of 10 mg/kg of idebenone (compound IA) in rats leads to plasma levels of approximately 1000 ng/ml of total idebenone as measured by radioactivity after oral dosing of radioactive labeled compound IA. The total concentration means idebenone including its metabolites. […] The corresponding levels in the brain are 10 ng/ml of total idebenone (which again means including the metabolites), resulting in only 0.03 ng/ml for parent idebenone itself. As a result, the ratio of brain vs plasma levels is about 1%. This is in line with the findings of Nagai et al (Nagai Y, Yoshida K, Narumi S, Tanayama S, Nagaoka A. Brain distribution of idebenone and its effect on local cerebral glucose utilization in rats. Arch Gerontol Geriatr. 1989;8(3):257-72), where higher oral doses of idebenone (100 mg/kg) are leading to similar low brain- to-plasma ratio of 1-2% in rats.

Series [2] deals with C57BL/6J mice. Nature of the series: Mouse model of intravitreal rotenone injection, histopathological analyses of retinal degeneration, first study. The settings on record: ± SEM; for Gliosis: GFAP immunostaining RFU; for Gliosis / Retinal thickness: 7 days post-injection; for Glutamine-synthetase: GS immunostaining RFU; for Glutamine-synthetase / RGC number: 1 day post-injection. The source says:
This mouse model is used to assess the therapeutic potential of compounds in eye disorders characterized by mitochondrial dysfunction such as LHON, DOA, macular degeneration, retinopathy, and complex I deficiency. It is a widely accepted in vivo model based on single-eye intravitreal injection of the mitochondrial complex I inhibitor rotenone in the adult mouse. Intravitreal injection of rotenone induces neurotoxicity through mitochondrial complex I dysfunction in the retina which is the main molecular dysfunction […]. […] Histological analysis includes quantitative measurement of the retinal thickness (whole retina and individual layers), RGC apoptosis and cell death, oxidative stress, glutamine synthetase expression, and gliosis. The non-injected eye is used as a within subject, i.e. intraindividual, control. Male wild-type C57BL/6J mice (7 weeks old, about 25 g body weight) are individually housed in Makrolon type II cages with standard bedding and free access to food and water under a regular 12-hours light-dark cycle (8 a.m. to 8 p.m.). […] The injection is performed over a period of 2 min and the needle is kept in place for an additional 3 min, after which it is gently removed. Sterile surgical glue (Histoacryl, BRAUN/Aesculap AG, Germany) is used to seal the site of injection and a sterile antimicrobial ophtalmic ointment (Neosporin, GlaxoSmithKline, UK) is applied to the injected eye to avoid any infection. […] The eye balls are removed, retinas are dissected, fixed for an additional 2 h at 4°C, incubated in PB 0.1 M and 30% sucrose overnight, frozen in optimal cutting temperature compound (O.C.T., Tissue-Tek, Miles Laboratories, Elkhart, IN, USA), sliced at 14 µm, and collected onto glass slides for immunostaining. Immunostaining is performed accordingly to conventional method using multiple primary antibodies. Fluorescent-conjugated secondary antibodies and DAPI are used for visualization under a fluorescence microscope. All procedures are performed in accordance with the Swiss regulation and under a license approved by the "Kantonales Veterinäramt Basel-Land". Results: […] Table 5 In Table 5, the histological data are expressed as % of sham (DMSO) injected control ± SEM. […] IA 400 means a pretreatment with Compound IA at 400 mg/kg, similarily IA 2000 means a pretreatment with Compound IA at 2000 mg/kg. Statistical significance relative to vehicle + rotenone group is p ≤ 0.05 (*), p ≤ 0.01 (**). n is the number of retinas per group.

For series [3], the system named is C57BL/6J mice. Nature of the series: Optomotor testing of visual acuity in the rotenone mouse model. The settings on record: for Number of counterclockwise head movements/ 2 min / Number of clockwise head movements/ 2 min: 5 weeks after injection, ± SEM; for Number of counterclockwise head movements/ 2 min: non-injected eye; for Number of clockwise head movements/ 2 min: rotenone-injected eye; for Number of head movements: 2000 mg/kg in diet, mean ± SEM. As to the method: Since RGC loss is associated with visual acuity impairment, we tested whether the neuroprotective effect of the test compound IA also correlated with recovery of visual function. For this purpose, visual acuity was detected by quantifying the optomotor response of animals subjected to the test system described above. The optomotor response was measured as previously described (see […]., et al. Vis. Res., 2005). Mice were placed on a central platform surrounded by a motorized drum with black and white vertical stripes that can rotate in both, clockwise and counterclockwise, direction at different velocities (which can be adjusted to evoke the optimal optokinetic response), and under constant light levels. Mice were allowed to habituate for 5 min to the experimental conditions before stripes were rotated alternately clockwise and counterclockwise, for 2 min in each direction and with an interval of 30 s between the two rotations. The mice were recorded on a computer using a digital video camera mounted above the apparatus to subsequently score the number of head movements by manual counting. Head movements were scored only when the angular speed of the head turn corresponds to that of the drum rotation. After aquisition and encoding by an investigator, a second, blinded investigator conducted all assessments. Codes were broken upon completion of data acquisition by a third investigator. Each mouse was tested at different time points and the apparatus will be cleaned between mice. Data will be presented as mean ± SEM. Paired Student's t-test and analysis of variance (ANOVA) will be used to compare non-normalized data. Statistical significance will be set at p≤0.05(*), p≤0.01(**) and p≤0.001 (***). Table 7: Effect of idebenone pre-treatment on visual acuity in an in vivo mouse model for LHON. Quantification of mouse visual acuity based on the optomotor response in mice pre-treated for 3 weeks with vehicle and idebenone 2000 mg/kg in diet. […] The optomotor response was examined in both clockwise (a) and counterclockwise (b) directions of motion, clockwise and counterclockwise tracking head movements reflecting visual acuity of the rotenone-injected (left) and non-injected (right) eye, respectively.

The mark [4] stands for this setting: correction factor calculated from Torii et al.
Setting [5] is: 400 mg/kg pretreatment 3 weeks + rotenone.
[6] abbreviates: 2000 mg/kg pretreatment 3 weeks + rotenone.

Results on one compound are retold here after patent EP2605769B1, “BENZOQUINONE DERIVATIVES FOR THE TREATMENT OF MITCHONDRIAL EYE DISEASES” (Santhera Pharmaceuticals (Schweiz) AG, priority 2010, dated 2012).

Marks after values point to notes of the source that are not given here.

As to `COC1=C(OC)C(=O)C(CCCCCCCCCCO)=C(C)C1=O` [Compound IA, Idebenone], the Kp in series [1] (rat, brain / plasma, read-out: ratio of brain vs plasma levels) was roughly 0.01. The “idebenone plasma levels (unmetabolized parent)” value in series [1] (setting [4]) is 3 ng/mL. In series [1] (setting [4]), the “levels in the brain of parent idebenone” value was 0.03 ng/mL. Further, the figures for the Gliosis in the series on C57BL/6J mice [2] (400 mg/kg + rotenone) and with C57BL/6J mice [2] (2000 mg/kg + rotenone) were 112.7 ± 11.9 * (n=3) % of sham (DMSO) injected control and 134.7 ± 10.7* (n=3) % of sham (DMSO) injected control, respectively. Also, the Glutamine-synthetase with C57BL/6J mice [2] (400 mg/kg + rotenone) is recorded as 98.5 ± 1.9 (n=5) % of sham (DMSO) injected control; in the series on C57BL/6J mice [2] (2000 mg/kg + rotenone) it was 99 ± 2.9 * (n=6) % of sham (DMSO) injected control. The results for the RGC number with C57BL/6J mice [2] (setting [5]) and in the series on C57BL/6J mice [2] (setting [6]) were 94.6 ± 3.2 ** (n=3) % of sham (DMSO) injected control and 101.3 ± 11.3 (n=3) % of sham (DMSO) injected control, respectively. In addition, the Retinal thickness is on record as 84.3 ± 2.9 ** (n=3) % of sham (DMSO) injected control in the series with C57BL/6J mice [2] (setting [5]) and 76.9 ± 10.1 (n=4) % of sham (DMSO) injected control in the series on C57BL/6J mice [2] (setting [6]). Moreover, the “Number of counterclockwise head movements/ 2 min” value in the series on C57BL/6J mice [3] (2000 mg/kg + rotenone 1 mM) was determined as 12.5 ± 4.5 head movements/2 min; in the series with C57BL/6J mice [3] (2000 mg/kg + rotenone 5 mM) it was 10.5 ± 0.6 head movements/2 min. Further, the “Number of clockwise head movements/ 2 min” value is listed as 9 ± 2 head movements/2 min with C57BL/6J mice [3] (2000 mg/kg + rotenone 1 mM) and 3.5 ± 1.5 head movements/2 min in the series with C57BL/6J mice [3] (2000 mg/kg + rotenone 5 mM). Also, the “Number of head movements” value was 0 ± 0 (n=7) head movements/2 min with C57BL/6J mice [3] (time post-injection 1 day); 0.5 ± 0.5 (n=7) head movements/2 min in the series with C57BL/6J mice [3] (time post-injection 7 days); 1.8 ± 0.8 (n=7) head movements/2 min in the series on C57BL/6J mice [3] (time post-injection 14 days); 2.8 ± 1.4 (n=7) head movements/2 min in the series on C57BL/6J mice [3] (time post-injection 21 days); 2.8 ± 1.4 (n=7) head movements/2 min in the series with C57BL/6J mice [3] (time post-injection 28 days); 3.5 ± 1.5 (n=7) head movements/2 min in the series on C57BL/6J mice [3] (time post-injection 35 days). For the same compound, the results for the “Number of head movements” value with C57BL/6J mice [3] (time post-injection 56 days) and with C57BL/6J mice [3] (time post-injection -7 days) were 6 ± 2.1 (n=4) head movements/2 min and 9.7 ± 0.7 (n=7) head movements/2 min, respectively.
